From the NIST ThermoML archive (doi:10.1016/j.fluid.2018.06.004)
± gives the expanded uncertainty stated by the source.

Settings: 101.33 kPa, Liquid, transient hot wire

For CCO [ethanol], the thermal conductivity (276.51 K) was 0.1719 ± 0.0069 W/m/K, the thermal conductivity (280.8 K) was 0.1687 ± 0.0068 W/m/K and the thermal conductivity (284.27 K) was 0.1699 ± 0.0068 W/m/K. For the same compound, the thermal conductivity (290.37 K) was 0.1677 ± 0.0067 W/m/K and the thermal conductivity (293.43 K) was 0.1658 ± 0.0067 W/m/K.

For CCCCCCCCCC(=O)OCC [ethyl decanoate], the thermal conductivity (270 K) was 0.1483 ± 0.006 W/m/K, the thermal conductivity (279.98 K) was 0.1463 ± 0.0059 W/m/K and the thermal conductivity (289.85 K) was 0.1442 ± 0.0058 W/m/K. The thermal conductivity (299.64 K) was 0.1422 ± 0.0057 W/m/K, the thermal conductivity (309.6 K) was 0.14 ± 0.0056 W/m/K and the thermal conductivity (319.72 K) was 0.1375 ± 0.0055 W/m/K. It also gave a thermal conductivity (329.53 K) of 0.1355 ± 0.0055 W/m/K, a thermal conductivity (339.49 K) of 0.1332 ± 0.0054 W/m/K and a thermal conductivity (349.51 K) of 0.1307 ± 0.0053 W/m/K. The thermal conductivity (359.46 K) was 0.1284 ± 0.0052 W/m/K, the thermal conductivity (369.3 K) was 0.1266 ± 0.0051 W/m/K and the thermal conductivity (374.44 K) was 0.1248 ± 0.005 W/m/K. For the same compound, the thermal conductivity (379.49 K) was 0.1238 ± 0.005 W/m/K, the thermal conductivity (389.25 K) was 0.1214 ± 0.0049 W/m/K and the thermal conductivity (400.44 K) was 0.1195 ± 0.0048 W/m/K.

In the case of CCCCCCCCCCCC(=O)OCC [ethyl dodecanoate], the thermal conductivity (274.73 K) is reported as 0.151 ± 0.0061 W/m/K, the thermal conductivity (284.69 K) is reported as 0.1489 ± 0.006 W/m/K and the thermal conductivity (294.56 K) is reported as 0.1471 ± 0.0059 W/m/K. The thermal conductivity (304.59 K) was 0.1446 ± 0.0058 W/m/K, the thermal conductivity (314.47 K) was 0.1424 ± 0.0057 W/m/K and the thermal conductivity (324.41 K) was 0.1399 ± 0.0056 W/m/K. For the same compound, the thermal conductivity (334.28 K) was 0.1377 ± 0.0055 W/m/K, the thermal conductivity (344.09 K) was 0.1362 ± 0.0055 W/m/K and the thermal conductivity (349.21 K) was 0.1343 ± 0.0054 W/m/K. For the same compound, the thermal conductivity (354.09 K) was 0.1334 ± 0.0054 W/m/K, the thermal conductivity (359.09 K) was 0.1321 ± 0.0053 W/m/K and the thermal conductivity (369.13 K) was 0.1296 ± 0.0052 W/m/K. For the same compound, the thermal conductivity (379.1 K) was 0.1275 ± 0.0051 W/m/K, the thermal conductivity (389.1 K) was 0.1253 ± 0.005 W/m/K and the thermal conductivity (400.08 K) was 0.1229 ± 0.005 W/m/K.

With CCCCCCC(=O)OCC [ethyl heptanoate] the thermal conductivity (250.38 K) was 0.1482 ± 0.006 W/m/K, the thermal conductivity (260.21 K) was 0.1463 ± 0.0059 W/m/K and the thermal conductivity (270.16 K) was 0.1441 ± 0.0058 W/m/K. The thermal conductivity (280.02 K) was 0.1414 ± 0.0057 W/m/K, the thermal conductivity (289.93 K) was 0.1397 ± 0.0057 W/m/K and the thermal conductivity (299.84 K) was 0.137 ± 0.0055 W/m/K. The thermal conductivity (309.9 K) was 0.1343 ± 0.0054 W/m/K, the thermal conductivity (319.73 K) was 0.1321 ± 0.0054 W/m/K and the thermal conductivity (329.73 K) was 0.1294 ± 0.0052 W/m/K. It also gave a thermal conductivity (337.72 K) of 0.127 ± 0.0051 W/m/K, a thermal conductivity (341.71 K) of 0.1259 ± 0.0051 W/m/K and a thermal conductivity (347.65 K) of 0.1251 ± 0.0051 W/m/K. The thermal conductivity (353.6 K) was 0.1235 ± 0.005 W/m/K, the thermal conductivity (363.5 K) was 0.121 ± 0.0049 W/m/K and the thermal conductivity (373.51 K) was 0.1183 ± 0.0048 W/m/K. The thermal conductivity (383.64 K) was 0.1155 ± 0.0047 W/m/K and the thermal conductivity (393.46 K) was 0.1139 ± 0.0046 W/m/K.

With CCCCCCCC(=O)OCC [ethyl octanoate] the thermal conductivity (254.76 K) was 0.1484 ± 0.006 W/m/K, the thermal conductivity (264.72 K) was 0.1462 ± 0.0059 W/m/K and the thermal conductivity (274.7 K) was 0.144 ± 0.0058 W/m/K. The thermal conductivity (284.63 K) was 0.1422 ± 0.0057 W/m/K, the thermal conductivity (294.53 K) was 0.1405 ± 0.0057 W/m/K and the thermal conductivity (300.47 K) was 0.1387 ± 0.0056 W/m/K. For the same compound, the thermal conductivity (307.05 K) was 0.1366 ± 0.0055 W/m/K, the thermal conductivity (310.45 K) was 0.1356 ± 0.0055 W/m/K and the thermal conductivity (320.37 K) was 0.1336 ± 0.0054 W/m/K. It also gave a thermal conductivity (330.4 K) of 0.1312 ± 0.0053 W/m/K, a thermal conductivity (340.34 K) of 0.1286 ± 0.0052 W/m/K and a thermal conductivity (350.38 K) of 0.1268 ± 0.0051 W/m/K. For the same compound, the thermal conductivity (360.32 K) was 0.1234 ± 0.005 W/m/K, the thermal conductivity (370.25 K) was 0.1211 ± 0.0049 W/m/K and the thermal conductivity (380.17 K) was 0.1188 ± 0.0048 W/m/K. The thermal conductivity (390.39 K) was 0.1167 ± 0.0047 W/m/K and the thermal conductivity (400.37 K) was 0.1142 ± 0.0046 W/m/K.

Work on CCCCCCCCCCCCCC(=O)OCC [ethyl tetradecanoate] yielded a thermal conductivity (290.64 K) of 0.1515 ± 0.0061 W/m/K, a thermal conductivity (298.29 K) of 0.1501 ± 0.006 W/m/K and a thermal conductivity (307.33 K) of 0.1481 ± 0.006 W/m/K. For the same compound, the thermal conductivity (315.2 K) was 0.1465 ± 0.0059 W/m/K, the thermal conductivity (324.22 K) was 0.1448 ± 0.0058 W/m/K and the thermal conductivity (333.17 K) was 0.1426 ± 0.0057 W/m/K. The thermal conductivity (340.99 K) was 0.1406 ± 0.0057 W/m/K, the thermal conductivity (350.11 K) was 0.1383 ± 0.0056 W/m/K and the thermal conductivity (359.07 K) was 0.137 ± 0.0055 W/m/K. The thermal conductivity (367.97 K) was 0.1342 ± 0.0054 W/m/K, the thermal conductivity (377.86 K) was 0.1326 ± 0.0053 W/m/K and the thermal conductivity (389.06 K) was 0.1297 ± 0.0052 W/m/K. For the same compound, the thermal conductivity (393.88 K) was 0.1286 ± 0.0052 W/m/K.

O [water] gave a thermal conductivity (293.09 K) of 0.6056 ± 0.024 W/m/K, a thermal conductivity (299.55 K) of 0.613 ± 0.025 W/m/K and a thermal conductivity (309.83 K) of 0.6313 ± 0.025 W/m/K. The thermal conductivity (314.96 K) was 0.6399 ± 0.026 W/m/K, the thermal conductivity (319.56 K) was 0.6399 ± 0.026 W/m/K and the thermal conductivity (324.64 K) was 0.6492 ± 0.026 W/m/K. The thermal conductivity (332.53 K) was 0.6555 ± 0.026 W/m/K, the thermal conductivity (339.33 K) was 0.657 ± 0.026 W/m/K and the thermal conductivity (340.41 K) was 0.6654 ± 0.027 W/m/K. It also gave a thermal conductivity (349.41 K) of 0.6723 ± 0.027 W/m/K.
